# Results published in patent US11857588B2, “Reproductive cell maintenance system” (Membrane Protective Technologies, Inc., priority 2005, dated 2024).
# Where two headings read alike, the source gives them in different places.
# Legend:
# [1] = test system: stallion sperm cells; format: cell-based
# Procedure: In a first experiment (data set out to the right of Exp 1 in Tables 1-6), semen was collected from two stallions via artificial vagina. The motility of each ejaculate was determined subjectively via light microscope and the semen was diluted to a final concentration of about 5×10^8 motile sperm cells/ml with E-Z freezin LE (Animal Reproduction Systems, Chino, Calif.) and combined to one each of thirteen 0.25 mL semen samples was an amount of a corresponding one of thirteen adjuvants: (1) no addition-control (“untreated control semen sample); 2) about 5% cyclodextrin; 3) about 2.5% cyclodextrin; 4) about 5% pulp oil in cyclodextrin; 5) about 2.5% pulp oil in cyclodextrin; 6) about 5% seed oil in cyclodextrin; 7) about 2.5% seed oil in cyclodextrin; 8) emulsion of about 5% seed oil, 9) emulsion of about 2.5% seed oil, 10) emulsion of about 5% pulp oil, 11) emulsion of about 2.5% pulp oil, 12) about 5% juice, and 13) about 2.5% juice. Throughout this description the amount of extract is expressed as a percentage volume to volume (v/v) unless otherwise indicated.
# Following dilution of each semen sample with E-Z freezin LE and combining the diluted semen with the corresponding adjuvant (“treated semen samples”), the treated semen samples were cooled by reducing the temperature at a controlled rate to about 5° C. […]
# [2] = test system: stallion sperm cells; format: cell-based; remark: listed apart in the source
# Procedure: In a second experiment (data set out to the right of Exp 2 in Tables 5-6), semen was collected from one stallion via artificial vagina. The motility of the ejaculate was determined objectively using a Hamilton-Thorn sperm analyzer with a 37° C. stage warmer. The assessed data included percentage of motile sperm cells, progressive motile sperm cells, as well as average path velocity, straight line velocity, and straightness of motile sperm cells in accordance with conventional operating procedures for the instrument. […]
# Following dilution of each semen sample with E-Z Mixin CST and the corresponding adjuvant, the treated semen samples were cooled by reducing the temperature at a controlled rate to about 4° C. Motility was evaluated subjectively via light microscope immediately at 24, 38, and 72 h after being held at about 4° C. […]
substance,measurement,setting,value
cyclodextrin,effect on sperm cells (spermicidal),[1],spermicidal
same,effect on sperm cells (spermicidal),[2],spermicidal
